For orientation: melting point means the temperature of the solid-liquid transition.

`CC1OCC(=O)N(C(=O)O)C1c1ccc(F)c(F)c1` (single isomer, unassigned; (+)) gave a melting point of 191 to 194 °C. As for `N#Cc1nn(-c2c(Cl)cc(C(F)(F)F)cc2Cl)c(Cl)c1SC(F)(F)F`, the melting point was in the range of 131 to 132 °C. The result for `c1ccc(-c2ccc3nc(C4(c5ccc6[nH]nnc6c5)N=c5ccccc5=N4)[nH]c3c2)cc1` reads greater than 280 °C; that for `CCC(=O)OC(C#N)C(C#N)c1ccc(OC)c(OC)c1` (stereo not drawn), 92 to 94 °C; that for `CON=C1CCCCC1n1nc(-c2c(-c3ccccc3)nn3ccccc23)ccc1=O` (stereo not drawn), 85 to 87 °C.

Regarding `COc1ccc2nc(NC(=O)CO)sc2c1`, the melting point lay in the range of 208 to 209 °C. `CC(=NO)c1ccc2c(c1)CCc1c(O)cc(O)cc1S2`: the melting point fell in the range of 215 to 218 °C. The result for `Cc1ccccc1Oc1cccc2c1OC(=O)C2C` (stereo not drawn) reads 45 to 46 °C; that for `COc1ccc(-c2sc(Nc3cnccn3)nc2C)cc1S(N)(=O)=O`, 378 °C. Next, `CC(=O)c1ccc2c(c1)C(Cl)Cc1ccc(F)cc1S2` (stereo not drawn): 112 to 114 °C.

For `Cc1cccc2c1nc(-c1ccc3ccccc3c1)n2Cc1c(F)cccc1F`, the melting point was 175 to 176 °C. The result for `Cc1nc(NC(=O)c2ccco2)sc1C(=O)c1sc(NC(=O)c2ccco2)nc1C` reads 198 to 199 °C; that for `Cc1ccnc(-n2cc(C#N)ccc2=O)c1`, 166 to 168 °C; that for `Cc1cc(C)c2nc3n(c(=O)c2c1)-c1ccc(F)cc1C3=O`, 275 to 277 °C.

Regarding `O=C(CNc1ccc(Cl)cc1)c1cc(O)c(O)c([N+](=O)[O-])c1`, the melting point is 177 to 178 °C. Compound `O=C(/C=C/c1ccc(Sc2ccccc2[N+](=O)[O-])c(Cl)c1Cl)N1CCOCC1` gave a melting point of 210 to 213 °C.

Compound `CCOC(=O)CC(=O)c1ccc(Cl)c(C)c1` showed a melting point of 50 to 51 °C.

Take `C[Si](C)(C)OC(CCl)(Cn1cncn1)c1ccc(F)cc1F` (stereo not drawn): the melting point was 59 to 61 °C. On to `CN1c2cc(Cl)ccc2-c2nc3ccccc3c3cc(OS(=O)(=O)C(F)(F)F)cc1c23`, for which the melting point lay in the range of 239 to 241 °C. Next, `COc1ccc(-c2ccc(C)nc2-c2ccc(OCCN3CCCC3)cc2)cc1`: 63 to 64 °C; `CCn1cc(C(=O)O)c(=O)c2cc(F)c(N3CCN(C)C(c4ccco4)C3)cc21` (stereo not drawn): 209 to 212 °C; `CCNCCNc1ccc(NCCN(CC)CC)c2c1C(=O)c1c(O)ccc(O)c1C2=O`: 161 to 163 °C. The result for `COc1ccc(CN2CCC(c3ccc(-c4cccc(N)n4)cc3)CC2)cc1OC` reads 150 to 165 °C; that for `CCc1cc(C)cc(CC)c1C1C(=O)C2=CC(CCC(C)=NOC)CC2C1=O` (stereo not drawn), 79 to 80 °C. Next, `CC12CC=C3C(CCC4(CCC#N)CC(O[Si](C)(C)C(C)(C)C)CCC34C)C1CCC2O[Si](C)(C)C(C)(C)C` (stereo not drawn): 194 to 195 °C; `COc1ccc(C2=C(c3ccc(S(C)(=O)=O)cc3)C(C)(C)OC2=O)cc1`: 148 °C. `Nc1nc2ccccc2c2c1ncn2CCOCc1ccccn1` registered a melting point of 196 to 198 °C. The result for `Cc1cc(C)c(Nc2nc(C)ccc2S(=O)(=O)c2ccc(F)c(Cl)c2)c(C)c1` reads 139 to 141 °C; that for `COc1cc(OCCn2cccc2)ccc1/C=C/c1cc(/C=C/c2ccc3cc[nH]c3c2)n[nH]1`, 102 to 110 °C. Turning to `CC(=O)c1ccc2c(c1)Sc1cc(Br)ccc1O2`, the melting point lay within 143 to 145 °C. The result for `CCNC(=S)NS(=O)(=O)c1cc2c(cc1OC)OCCC2CNC(=O)c1cc(Cl)ccc1OC` (stereo not drawn) reads 196 to 197 °C; that for `O=c1[nH]c2c(n1-c1ccccc1)CCCC2`, 220 °C. The result for `O=C1c2ccccc2-c2c1c1ccccc1c(=O)n2CCCCCCO` reads 139 to 141 °C.

As for `COc1cc2c(c(Cl)c1Cl)C(=O)C(CCCCl)(CCC(C)=O)C2` (stereo not drawn), the melting point lay within 120 to 122 °C. The result for `COc1cc(OC)c(F)c(NCc2ccccc2)c1F` reads 65 to 66 °C; that for `O=c1[nH]c2ncc(-c3ccc4[nH]ccc4c3)nc2n1CC1CCOCC1`, 305 to 308 °C.

For the compound `COc1cc(C(=O)NS(=O)(=O)c2ccccc2Cl)ccc1Cc1c(Cl)n(C)c2ccc(CC3CCN(C)C3=O)cc12` (stereo not drawn), the melting point was in the range of 126 to 134 °C. Next, `COc1ccc(C(=O)C(=O)c2ccncc2)cc1OC1CCCC1`: 117 to 119 °C. `COC(=O)[C@@H](O)[C@H](CC(C)C)NC(=O)[C@H](Cc1c[nH]cn1)NC(=O)[C@H](Cc1cccc2ccccc12)NC(=O)OCc1ccccc1` showed a melting point of 110 to 114 °C. Next, `Cc1nn(CCC(C)C)c(C)c1CC(=O)O`: 135 to 136 °C. Next, `CSc1ncc(C(C)c2cccnc2)c(=O)[nH]1` (stereo not drawn): 201 to 204 °C; `NC1=Nc2ccc(OC(F)(F)F)cc2SC1`: 94 to 96 °C; `Cc1nc(N2CCOCC2)c2n1-c1ccc(Cl)cc1C(c1ccccc1F)=NC2`: 172 to 174 °C. Turning to `Nc1nc(N2CCN(CCCC3(c4ccc(F)cc4)OCCO3)CC2)ccc1[N+](=O)[O-]`, the melting point was 117 to 118 °C. The result for `CC(=O)c1ccc(Cl)nc1` reads 101 to 102 °C. The result for `CN(C)c1nc(=O)c2cccnc2n1Cc1ccc(F)cc1` reads 167 to 170 °C; that for `COCCOCc1c(CN(C)CC(O)c2ccccn2)sc2c(=O)c(C(=O)NCc3ccc(Cl)cc3)cn(C)c12` (stereo not drawn), 150 to 152 °C. The result for `COc1ccc(NC(=O)N2CCc3cc(S(=O)(=O)N4CC(c5ccccc5)NC4=O)ccc32)cc1` (stereo not drawn) reads 268 to 270 °C; that for `CC(C)(CCCSCCNS(=O)(=O)c1ccc(Cl)cc1)C(=O)O`, 107 to 109 °C; that for `N=C(Nc1cccc(Cl)c1)Nc1nc(-c2ccccc2)cs1`, 134 to 135 °C. Take `COc1ccc(OCC(O)CN2CCC(c3noc4cc(F)ccc34)CC2)cc1` (stereo not drawn): the melting point was 134 to 135 °C.

Compound `CSC(=O)N1c2ccccc2C(=O)N(C(C)C)S1(=O)=O` showed a melting point of 125 to 127 °C. Next, `CCN(CC)C(=O)NC1CC2c3cccc4[nH]cc(c34)CC2N(C)C1` (stereo not drawn): 171 to 173 °C; `COc1ccc(CN=Nc2c(O)c(O)c(N=NCc3ccc(OC)cc3)c3ccccc23)cc1`: 245 to 251 °C; `CCCCCCC(C(=O)O)c1ccc(NC(=O)C2(O)c3ccccc3-c3ccccc32)cc1` (stereo not drawn): 183 to 185 °C. The result for `Cc1cc(Cl)n2nc(S(=O)(=O)Nc3c(Cl)cccc3Cl)nc2c1` reads 257 to 258 °C; that for `CSc1nccc(Oc2ccc(NC(=O)c3cccc(OC(C)(C)C)c3)c3ccccc23)n1`, 135 to 136 °C; that for `CCCCCC(CCn1ccnc1)SCc1ccc(Cl)cc1Cl` (stereo not drawn), 124 to 126 °C. The result for `Cc1ccccc1NC(=O)C1CCc2nc[nH]c2C1` (stereo not drawn) reads 100 to 105 °C.

For `CCC1(CCCCN2CCN(c3cccc4c3OCCO4)CC2)C(=O)Nc2ccccc21` (stereo not drawn), the melting point is 169 to 170 °C. Next, `COc1ccc(C[C@@H]2COc3ccc(OCc4ccc5ccccc5n4)cc3[C@H]2O)cc1OC` (relative stereo): 175 °C; `CC(C)(C)OC(=O)N1C(=O)C(C2=COc3ccccc3O2)=C(c2cn(C(=O)OC(C)(C)C)c3ccc(OCc4ccccc4)cc23)C1=O`: 76 °C; `COc1cc(-c2cn(C3CCCC3)c3ncnc(N)c23)ccc1NS(=O)(=O)c1ccccc1`: 113 to 115 °C. The result for `COc1ccc(S(=O)(=O)Nc2cccnc2Nc2ccccc2O)cc1` reads 154 to 155 °C; that for `CN1CCC(NC(=O)C2c3ccccc3NC(=O)c3ccccc32)CC1` (stereo not drawn), 230 to 231 °C; that for `CC(C)N1CCN(Cc2cc(NC(=O)Nc3ccc(Oc4cc(Cl)ncn4)cc3)cc(C(F)(F)F)c2)CC1`, 101 °C. Regarding `CCCCc1nc2cccc(C(=O)OC)c2[nH]1`, the melting point stood at 85 °C.

In turn, `O=C(O)C1=Cc2cc(Cl)c(I)cc2OC1C(F)(F)F` (stereo not drawn) gave a melting point of 225 to 226 °C. Next, `Cc1ccc(OCCCN2CCN(c3nc(N)nc(-c4cc(Cl)ccc4Cl)n3)CC2)cc1`: 148 to 150 °C; `Cc1cc(-c2ccccc2C)ccc1NC(=O)c1ccc2n1Cc1ccccc1N(C(=O)COc1ccc(Cl)cc1)C2`: 159 to 161 °C; `COC(=O)c1ccc(OCCNC(=O)C2Cc3ccccc3N2S(=O)(=O)c2ccc(-c3ccc(F)cc3)cc2)cc1C(F)(F)F` (stereo not drawn): 62 to 70 °C. `COc1ccccc1[N+]1([O-])CC[N+]([O-])(CCN(C(=O)C2CCCCC2)c2ccccc2[N+](=O)[O-])CC1` (stereo not drawn) displayed a melting point of 153 to 157 °C.

In the case of `Cc1cc(-n2ccnc2)c2cccc(OCc3c(Cl)ccc(S(=O)(=O)N4CCC[C@H]4C(=O)NCCCN4CCOCC4)c3Cl)c2n1`, the melting point turned out to be 96 °C. Turning to `O=C1CCN(C(=O)c2cc(C(F)(F)F)cc(C(F)(F)F)c2)CC1`, the melting point was in the range of 155 to 157 °C.

`C#CCN1C(=O)C(=O)N(c2cc(Cl)ccc2C)C1=S`: the melting point lay within 162 to 164 °C. Next, `COc1ccc(C(=O)c2c(C)n3c4c(cccc24)OCC3CN2CCOCC2)cc1` (stereo not drawn): 182 to 189 °C; `Cn1c2ccc(-c3nnn[nH]3)cc2c(=O)c2cccnc21`: 321 °C. In turn, `CC1(C)Cc2c(N)c(Cl)cc(C(=O)NC3CCN(CCCNc4nc(O)c5ccccc5n4)CC3)c2O1` yielded a melting point of 160 °C. The result for `O[C@@H]1Cc2ccccc2C[C@H]1N1CCN(c2ccccc2)CC1` (relative stereo) reads 152 to 154 °C. The result for `COc1ccc(C=CC(=O)O)cc1-c1cc2c(cc1OCCCCCC(=O)O)C(C)(C)CCC2(C)C` reads 166 to 168 °C; that for `CC12CCC(O)CC1=CCC1C2CCC2(C)C(n3ncnn3)=CCC12` (stereo not drawn), 195 to 198 °C.

For `O=[N+]([O-])c1ccc2c([N+](=O)[O-])c(O)c(O)cc2c1`, the melting point lay within 200 to 207 °C. Next, `Cc1cccc2c1nc(C(C)C)n2Cc1c(F)cccc1F`: 151 to 153 °C.

Values taken from a melting point compilation (Tetko et al.; mined from patent text by program, amines drawn as free bases though some values may be those of a salt).
